Values quoted from earlier work as cited in patent publication US11718832B2, “Method to reduce oncogenic potential of induced pluripotent stem cells from aged donors” (MEMORIAL SLOAN-KETTERING CANCER CENTER, priority 2014, dated 2023).

Tested on: GSS
Details: literature

Structure (SMILES)	Inhibition of GSS
[N-]=[N+]=CC(=O)OC[C@H](N)C(=O)O [azaserine]	inhibit GSS
[N-]=[N+]=CC(=O)CC[C@H](N)C(=O)O [6-Diazo-5-oxo-L-norleucine]	inhibit GSS
CCCCS(=N)(=O)CCC(N)C(=O)O (stereo not drawn) [buthionine sulfoximine]	inhibit GSS
